Laboratory results from patent US5707615A, “Method of treating HIV infections with anti-viral formulations” (Merrell Pharmaceuticals Inc., priority 1997, dated 1998).
Where “and” joins values, the source holds several entries; their conditions need not be identical. Identical values can stand only once.

Key:
influenza = details: cited from earlier work
GB8 virus in JM cells = experiment: Virus infection of JM cells with GB8 in the presence of test compounds: syncytia and P24 (Example II); details: Table II; for SYNCYTIA % / P24 %: % of control; for SYNCYTIA %: 2880 min; for P24 %: 5760 min
MT4 cells = experiment: Toxicity to MT4 cells (TD50, Table IV, MTT); assay type: cell-based; details: MT4 cells, 7 days, MTT
Protocol: (§1) Various oligomers were dissolved in RPMI and were then assayed for anti-HIV activity by making doubling dilutions of the solutions across a 96 well microtitre plate. To each well were then added 5×10^4 cells and 100 TCID50 of virus and the plates incubated at 37° C. for 7 days. MTT was added to each well and the plates incubated for a further 2 hours. The blue formazan crystals were dissolved using acidic isopropanol, and the absorbance measured at 540 nm.

HIV-I (GB8) [1] = experiment: Effect of treating HIV-I (GB8)-infected cells (JM) 24 hours post-infection (Example V, Table VI); assay type: cell-based; details: for P24 % CONTROL: 8640 min
HIV strain RF = experiment: Ability to prevent virus-induced cell death using MT4 cells and strain RF (Example III); assay type: cell-based; details: MT4 cells, 7 days, MTT, 10080 min
Protocol: as §1

HIV-I (GB8) [2] = experiment: Pretreatment of JM cells and block of HIV-I (GB8) infection (Example IV); details: pretreated overnight at 20 μg/mL
Protocol: JM cells were pretreated overnight at 37° C. with different compounds at 20 μg/mL or left untreated. The cells were washed 3 times in RPMI medium and then infected with HIV-I (GB8) for 2 hours at room temperature. The cells were again washed 3 times in RPMI medium and resuspended in fresh medium prior to being distributed into duplicate wells and incubated at 37° C. After 2 days syncytia were scored and the cell free supernatant fluid harvested and assayed for P24 viral core antigen using the Coulter™ HIV antigen assay.

HIV-I, GB8 = experiment: Ability to prevent syncytia formation and expression of P24 viral core antigen using JM cells and GB8 virus strain (Example I); assay type: cell-based; details: for P24 % CONTROL: 4320 min; for SYNCYTIA: after 3 days
Protocol: The virus was first incubated with an oligomer for 15 minutes and then the cells were added. After 2 hours adsorption, the virus innoculum was removed and the cells were washed three times to remove traces of input virus. Antiviral activity was determined after 3 days incubation by plotting the mean number of syncytia found in quadruple cultures against log10 concentration of anionic polymer or of other test compounds. The potency of an oligomer was also measured by assaying viral core antigen (P24 test-Abbott) in the supernatant fluid. Heparin, dextran sulfate, rs CD4, ATZ and/or ddC data, when included in any of the following Tables, are provided as positive controls.

HIV-I (GB8) [3] = experiment: Effect of treating HIV-I (GB8)-infected cells (JM) 48 hours post-infection (Example V, Table VIII); assay type: cell-based; details: for P24 / P24 % CONTROL: day 6 p.i.
HIV-I (RF) = experiment: Effect of treating HIV-I (RF)-infected cells (C8166) 24 hours post-infection (Example V, Table VII); details: for P24 % CONTROL: 8640 min
Protocol: Cells were infected with strain RF or GB8 for 24 hours at 37° C. at a multiplicity of infection of 0.001. Cells were washed three times to remove residual virus and then replated into fresh growth medium. Cells were then treated for 24 and 48 hours post-infection (p.i.) with the indicated concentrations of test compounds. Syncytia and P24 antigen levels were determined on the indicated days p.i. by methods described before.

[4] = 0.31 μM, addition 24 hours p.i.
[5] = 0.62 μM, addition 24 hours p.i.
[6] = 1.2 μM, addition 0 hours p.i., single wells
[7] = 1.25 μM, addition 24 hours p.i.

2-deoxy-2-fluoroglucose
viral protein glycosylation (influenza): inhibited viral protein glycosylation

poly{imino[2,2'-disulfo(1,1'-biphenyl)-4,4'-diyl]iminocarbonyl}, alpha-{[(4-methylphenyl)amino]carbonyl}-omega[(4-methylphenyl)amino]- [Example 1A]
SYNCYTIA (2 DAYS) MEAN (GB8 virus in JM cells; 0.01 μg/mL): 60 | SYNCYTIA % (GB8 virus in JM cells; 0.01 μg/mL): 143% | P24 (GB8 virus in JM cells; 0.03 μg/mL): 4.3 × 10^5 units/mL | SYNCYTIA (2 DAYS) MEAN (GB8 virus in JM cells; 0.03 μg/mL): 52 | SYNCYTIA % (GB8 virus in JM cells; 0.03 μg/mL): 123% | P24 % (GB8 virus in JM cells; 0.03 μg/mL): 100% | P24 (GB8 virus in JM cells; 0.1 μg/mL): 4.0 × 10^5 units/mL | SYNCYTIA (2 DAYS) MEAN (GB8 virus in JM cells; 0.1 μg/mL): 25 | SYNCYTIA % (GB8 virus in JM cells; 0.1 μg/mL): 58% | P24 % (GB8 virus in JM cells; 0.1 μg/mL): 100% | P24 (GB8 virus in JM cells; 0.3 μg/mL): 4.0 × 10^4 units/mL | SYNCYTIA (2 DAYS) MEAN (GB8 virus in JM cells; 0.3 μg/mL): 14 | SYNCYTIA % (GB8 virus in JM cells; 0.3 μg/mL): 33% | P24 % (GB8 virus in JM cells; 0.3 μg/mL): 11% | P24 (GB8 virus in JM cells; 1 μg/mL): 9.1 × 10^3 units/mL | SYNCYTIA (2 DAYS) MEAN (GB8 virus in JM cells; 1 μg/mL): 0 | SYNCYTIA % (GB8 virus in JM cells; 1 μg/mL): 0% | P24 % (GB8 virus in JM cells; 1 μg/mL): 3% | SYNCYTIA (2 DAYS) MEAN (GB8 virus in JM cells; 3 μg/mL): 0 | SYNCYTIA % (GB8 virus in JM cells; 3 μg/mL): 0% | SYNCYTIA (2 DAYS) MEAN (GB8 virus in JM cells; 10 μg/mL): 0 | SYNCYTIA % (GB8 virus in JM cells; 10 μg/mL): 0% | TD50 (MT4 cells): > 100 µg/mL | P24 DAY 6 p.i. (HIV-I (GB8) [1]; [4]): 165000 pg/mL | SYNCYTIA/WELL DAY 3 p.i. (HIV-I (GB8) [1]; [4]): > 50 SYNCYTIA/WELL | P24 % CONTROL (HIV-I (GB8) [1]; [4]): 16.0% | P24 DAY 6 p.i. (HIV-I (GB8) [1]; [5]): 56000 pg/mL | SYNCYTIA/WELL DAY 3 p.i. (HIV-I (GB8) [1]; [5]): < 20 SYNCYTIA/WELL | P24 % CONTROL (HIV-I (GB8) [1]; [5]): 5.4% | P24 DAY 6 p.i. (HIV-I (GB8) [1]; 1.2 μM, addition 24 hours p.i.): 15000 pg/mL | SYNCYTIA/WELL DAY 3 p.i. (HIV-I (GB8) [1]; 1.2 μM, addition 24 hours p.i.): < 10 SYNCYTIA/WELL | P24 % CONTROL (HIV-I (GB8) [1]; 1.2 μM, addition 24 hours p.i.): 1.5% | P24 DAY 6 p.i. (HIV-I (GB8) [1]; 2.5 μM, addition 0 hours p.i.): 420 pg/mL | SYNCYTIA/WELL DAY 3 p.i. (HIV-I (GB8) [1]; 2.5 μM, addition 0 hours p.i.): 0 SYNCYTIA/WELL | P24 % CONTROL (HIV-I (GB8) [1]; 2.5 μM, addition 0 hours p.i.): 0.04% | P24 DAY 6 p.i. (HIV-I (GB8) [1]; 2.5 μM, addition 24 hours p.i.): 12100 pg/mL | SYNCYTIA/WELL DAY 3 p.i. (HIV-I (GB8) [1]; 2.5 μM, addition 24 hours p.i.): 0 SYNCYTIA/WELL | P24 % CONTROL (HIV-I (GB8) [1]; 2.5 μM, addition 24 hours p.i.): 1.2% | ED50 (HIV strain RF): 1.6 µg/mL | P24 (HIV-I (GB8) [2]): 2623 pg/mL | MEAN SYNCYTIA (HIV-I (GB8) [2]; 2 days): 14 | P24 % (HIV-I (GB8) [2]; % of control, 2880 min): 9% | SYNCYTIA % (HIV-I (GB8) [2]; % of control, 2880 min): 12% | P24 (HIV-I, GB8; 0.6 μg/mL): 37355 pg/mL | P24 % CONTROL (HIV-I, GB8; 0.6 μg/mL): 0.13% | P24 (HIV-I, GB8; 1.25 μg/mL): 541 pg/mL | P24 % CONTROL (HIV-I, GB8; 1.25 μg/mL): < 0.1% | SYNCYTIA (HIV-I, GB8; 1.25 μg/mL): 0 | P24 (HIV-I, GB8; 2.5 μg/mL): 96 pg/mL | P24 % CONTROL (HIV-I, GB8; 2.5 μg/mL): < 0.1% | SYNCYTIA (HIV-I, GB8; 2.5 μg/mL): 0 | SYNCYTIA (HIV-I, GB8; 5.0 μg/mL): 0 | P24 (HIV-I (GB8) [3]; 1.2 μM, addition 0 hours p.i.): 450 pg/mL | P24 % CONTROL (HIV-I (GB8) [3]; 1.2 μM, addition 0 hours p.i.): 0.41% | SYNCYTIA/WELL DAY 3 p.i. (HIV-I (GB8) [3]; [6]): 0 SYNCYTIA/WELL | SYNCYTIA/WELL DAY 6 p.i. (HIV-I (GB8) [3]; [6]): 0 SYNCYTIA/WELL | P24 (HIV-I (GB8) [3]; 1.2 μM, addition 48 hours p.i.): 21000 pg/mL | P24 % CONTROL (HIV-I (GB8) [3]; 1.2 μM, addition 48 hours p.i.): 19.0% | SYNCYTIA/WELL DAY 3 p.i. (HIV-I (GB8) [3]; 1.2 μM, addition 48 hours p.i., single wells): 19 SYNCYTIA/WELL and 10 SYNCYTIA/WELL and 12 SYNCYTIA/WELL | effect on cells having preestablished infections (HIV-I (GB8) [3]; summary of studies): cleared cultures of syncytia, stabilized the infection and reduced virus antigen levels | P24 DAY 6 p.i. (HIV-I (RF); [5]): 700000 pg/mL | P24 % CONTROL (HIV-I (RF); [5]): 74% | P24 DAY 6 p.i. (HIV-I (RF); [7]): 1.5e+06 pg/mL | SYNCYTIA/WELL DAY 2 (HIV-I (RF); [7]): 0 | P24 % CONTROL (HIV-I (RF); [7]): 100% | SYNCYTIA/WELL DAY 2 (HIV-I (RF); 2.5 μM, addition 24 hours p.i.): 0 | SYNCYTIA/WELL DAY 3 (HIV-I (RF); 2.5 μM, addition 24 hours p.i.): 0 | P24 % CONTROL (HIV-I (RF); 2.5 μM, addition 24 hours p.i.): 10.2% | P24 DAY 6 p.i. (HIV-I (RF); 5 μM, addition 24 hours p.i.): 9300 pg/mL | SYNCYTIA/WELL DAY 2 (HIV-I (RF); 5 μM, addition 24 hours p.i.): 0 | SYNCYTIA/WELL DAY 3 (HIV-I (RF); 5 μM, addition 24 hours p.i.): 0 | P24 % CONTROL (HIV-I (RF); 5 μM, addition 24 hours p.i.): 1.0% | P24 DAY 6 p.i. (HIV-I (RF); 10 μM, addition 0 hours p.i.): 16000 pg/mL | SYNCYTIA/WELL DAY 2 (HIV-I (RF); 10 μM, addition 0 hours p.i.): 0 | SYNCYTIA/WELL DAY 3 (HIV-I (RF); 10 μM, addition 0 hours p.i.): 0 | P24 % CONTROL (HIV-I (RF); 10 μM, addition 0 hours p.i.): 1.7% | P24 DAY 6 p.i. (HIV-I (RF); 10 μM, addition 24 hours p.i.): 9200 pg/mL | SYNCYTIA/WELL DAY 2 (HIV-I (RF); 10 μM, addition 24 hours p.i.): 0 | SYNCYTIA/WELL DAY 3 (HIV-I (RF); 10 μM, addition 24 hours p.i.): 0 | P24 % CONTROL (HIV-I (RF); 10 μM, addition 24 hours p.i.): 1.0%
